Data taken from patent publication US20070213382A1, “2-METHYLTHIAZOLIDINE-2, 4-DICARBOXYLIC ACID-CONTAINING COMBINATION PREPARATIONS” (priority 2004, published 2007).
Converted amounts (≈) assume the structure as drawn. Like-named read-outs stand apart in the source and are kept apart here.

How the values were obtained:
[1] = system: Neuroglioma cells H4; experiment: in vitro cytotoxicity assay, crystal violet, 72 h (Example 1); type: cell-based; settings: human gliomas cells H4, 72 h; for cytotoxic effect: N-acetylcysteine up to comparatively high concentrations
Experimental: (§1) Examinations for the in vitro cytoxicity of 2-methylthiazolidine-2,4-dicarboxylic acid and N-acetylcysteine in human tumor cell lines were carried out.
(§2) The cells were kept in culturing medium RPMI 1640 (Sigma, Munich) and in addition 10% FCS (Sigma, Munich) in 50 ml cell culture vials (Greiner) at 37° C. as well as under a 5% of CO2 atmosphere.
(§3) Monolayers of the tumor cells were prepared by dispersion of 2×10^6 tumor cells in 96-hole-plates (Greiner). After an incubation time of 24 hours the medium was replaced by a medium containing the test compounds. All assays were carried out four times.
(§4) After 72 h the quantity of living cells was determined by means of coloring with crystal violet.
(§5) For that purpose, the medium was removed from each hole in the plate, the plates were washed twice with PBS, the cells were fixed by means of PBS, containing 1% of paraformaldehyde and dried for 15 minutes at room temperature. Subsequently, the cells were rinsed with PBS and dried at room temperature.
(§6) Thereafter, the cells were colored with 1% crystal violet solution in water for two minutes, and after washing with water the optical density was determined by means of an ELISA spectrometer at 595 nm. The average values and standard deviations for the average values were determined for all four parallel tests.

[2] = system: Bladder carcinoma cells EJ; experiment: as above; type: cell-based, human; settings: for IC50: Homo sapiens
Experimental: as §1, §2, §3, §4, §5, §6

SMILES | IC50 [1] [µg/mL] | cytotoxic effect [1] | growth of the bladder carcinoma cell line EJ ([2]; substance alone) | IC50 ([2]; alone, read-out: IC50 value for temozolomide alone) [µg/mL] | IC50 ([2]; in the presence of 200 μg/ml 2-methylthiazolidine-2,4-dicarboxylic acid, read-out: IC50 value of temozolomide in the presence of 2-methylthiazolidine-2,4-dicarboxylic acid) [µg/mL] | IC50 ([2]; in the presence of 1000 μg/ml N-acetylcysteine, read-out: IC50 value of temozolomide in the presence of N-acetylcysteine) [µg/mL]
CC1(C(=O)O)NC(C(=O)O)CS1 (stereo not shown) [2-methylthiazolidine-2,4-dicarboxylic acid] | 9.66 (≈ 50.5 µM) | significant cytotoxic effect | not influenced | – | – | –
Cn1nnc2c(C(N)=O)ncn2c1=O [temozolomide, Temozolomide] | – | – | – | 1050 (≈ 5430 µM) | 96.6 | 903
CC(=O)N[C@@H](CS)C(=O)O [N-acetylcysteine] | – | no effect | – | – | – | –
